Laboratory results published in patent USH2260H1, “Stents combined with paclitaxel derivatives” (Angiotech International AG, priority 2005, dated 2011).
Entries after “also recorded” stand apart in the source; their conditions may differ.

Columns and labels:
[1] = system: collagenase expression; test: Effect of other anti-microtubules on IL-1 induced collagenase expression in primary chondrocytes; type: cell-based, calf; conditions: pre-incubation 6 hours, IL-1 20 ng/ml 18 hours; FIGS. 5A-H
Protocol: Primary chondrocyte cultures were freshly isolated from calf cartilage. The cells were plated at 2.5×10^6 per ml in 100×20 mm culture dishes and incubated in Ham's F12 medium containing 5% FBS overnight at 37° C. The cells were starved in serum-free medium overnight and then treated with anti-microtubule agents at various concentrations for 6 hours. IL-1 (20 ng/ml) was then added to each plate and the plates incubated for an additional 18 hours. Total RNA was isolated by the acidified guanidine isothiocyanate method and subjected to electrophoresis on a denatured gel. Denatured RNA samples (15 μg) were analyzed by gel electrophoresis in a 1% denatured gel, transferred to a nylon membrane and hybridized with the ^32P-labeled collagenase cDNA probe. ^32P-labeled glyceraldehyde phosphate […] (GAPDH) cDNA as an internal standard to ensure roughly equal loading. The exposed films were scanned and quantitatively analyzed with IMAGEQUANT.

[2] = system: human fibroblasts; test: Screening assay, cell proliferation of fibroblasts (CYQUANT); type: cell-based; conditions: Fibroblast, 72 hours, average of n=4 experiments, FIG. 8
Protocol: Fibroblasts at 70-90% confluency were trypsinized, replated at 600 cells/well in media in 96-well plates and allowed to attach overnight. Paclitaxel was prepared in DMSO at a concentration of 10^−2 M and diluted 10-fold to give a range of stock concentrations (10^−8 M to 10^−2 M). […] Each drug concentration was tested in triplicate wells.
To terminate the assay, the media was removed by gentle aspiration. A 1/400 dilution of CYQUANT 400X GR dye indicator (Molecular Probes; Eugene, Oreg.) was added to 1X Cell Lysis buffer, and 200 μL of the mixture was added to the wells of the plate. Plates were incubated at room temperature, protected from light for 3-5 minutes.

[3] = system: AP-1 DNA binding activity; test: IL-1 induced AP-1 DNA binding activity, gel mobility shift with chondrocyte extracts; type: cell-based; conditions: chondrocytes pretreated with 10^−7 to 10^−5 M for 24 hours, IL-1β 20 ng/ml; FIG. 4C
Protocol: Binding activity was assayed with a radiolabeled human AP-1 sequence probe and gel mobility shift assay. Extracts from chondrocytes untreated or treated with various amounts of paclitaxel (10^−7 to 10^−5 M) followed by IL-1β (20 ng/ml) were incubated with excess probe on ice for 30 minutes, followed by non-denaturing gel electrophoresis. The “com” lane contains excess unlabeled AP-1 oligonucleotide. The results shown are representative of three independent experiments.

[4] = system: Chick Chorioallantoic Membrane (CAM); test: Chick chorioallantoic membrane (CAM) angiogenesis assay
[5] = system: MMP-1 mRNA (collagenase); test: IL-1 induced MMP-1 (collagenase) mRNA expression in chondrocytes, Northern blot; conditions: pretreatment 24 hours
[6] = system: MMP-3 mRNA (stromelysin); test: IL-1 induced MMP-3 (stromelysin) mRNA expression in chondrocytes, Northern blot; conditions: pretreatment 24 hours

With O=C(CCC(=O)ON1C(=O)CCC1=O)OCCOC(=O)CCC(=O)ON1C(=O)CCC1=O [ethylene glycol bis-(succinimidylsuccinate)] the “concentration (as low as) preventing IL-1-induced collagenase expression” value (from here on “concentration”) [1] was 100 nM.

For CC(O)CC(C)(C)O (centres unmarked) [hexylene glycol], the “concentration” value [1] was 100 nM.

For CC(=O)O[C@H]1C(=O)[C@@]2(C)[C@H]([C@H](OC(=O)c3ccccc3)[C@]3(O)C[C@H](OC(=O)[C@H](O)[C@@H](NC(=O)c4ccccc4)c4ccccc4)C(C)=C1C3(C)C)[C@]1(OC(C)=O)CO[C@@H]1C[C@@H]2O [paclitaxel], the IC50 [2] was 23 nM, the “IL-1 induced AP-1 binding activity” value [3] was “IL-1 induced binding activity decreased” and the “angiogenesis in the CAM” value ([4]; 48 hours after application) was “angiogenesis was inhibited”. For the same compound, the “maximal avascular zone, avascular gradient scale” value ([4]; within 48 hours, depending on concentration) was 3, the “collagenase mRNA inhibition at 10^−5 M” value ([5]; 10^−5 M paclitaxel) was “complete inhibition” and the “collagenase mRNA levels” value ([5]; then IL-1β, FIG. 4D) was “inhibited by pretreatment with paclitaxel; also recorded: significantly reduced”. The “stromelysin mRNA inhibition at 10^−5 M” value ([6]; 10^−5 M paclitaxel) was “complete inhibition” and the “stromelysin mRNA levels” value ([6]; then IL-1β, FIG. 4D) was “inhibited by pretreatment with paclitaxel; also recorded: significantly reduced”.

For Nc1ncnc2c1ccn2[C@@H]1O[C@H](CO)[C@@H](O)[C@H]1O [tubercidin], the “concentration” value [1] was 100 nM.
